Read-outs that look alike come from different tables or passages of the source.
Legend:
[1] = MTS assay, viability of ZFL cells; type: cell-based, zebrafish; settings: zebrafish, ZFL cells (zebrafish liver cell line), ZFL cells, read-out: IC50 for TKIs Cytotoxicity (95% Confidence Interval); for IC50 at 24 h: 24 h exposure; for IC50 at 48 h: 48 h exposure; for IC50 at 72 h: 72 h exposure
Description: (§1) The viability of ZFL cells after 24, 48, and 72 h of exposure to TKIs was determined using the tetrazolium-based (MTS) assay (Cell Titer 96 AQueous Non-Radioactive Cell Proliferation Assay; Promega, Madison, WI, USA) as previously described by Novak et al.. Cells were seeded in 96-well microtiter plates (Corning Costar Corporation, New York, NY, USA) at a density of 7000 cells/well. […] Three independent experiments were performed, each with five replicates per treatment point. The statistical significance between the treated groups and the solvent control was determined by Student’s t-test using GraphPad Prism V6 (GraphPad Software, La Jolla, CA, USA). *** (p < 0.001)was considered statistically significant.

[2] = tested on: zebrafish liver cells (ZFL); test: MTS assay, viability of ZFL cells; type: cell-based; settings: 24, 48, 72 h; dose- and time-dependent; ERL and NIL up to their maximum solubility
Description: as §1

[3] = tested on: zebrafish liver cells (ZFL); test: Propidium iodide live/dead staining by flow cytometry; type: cell-based
Description: Benzo[a]pyrene (50 μM), an indirect-acting genotoxic agent which requires metabolic activation for its genotoxic effects, and etoposide (0.17 μM), a direct-acting genotoxic agent, were selected as positive controls. After 72 h, floating and adherent cells were collected, resuspended in ice-cold 1x PBS, and immediately analyzed. Propidium iodide (PI) at a final concentration of 1 μg/mL was added to the cells 5 min before the start of measurements using the MACSQuant Analyzer 10 flow cytometer (Miltenyi Biotech, Bergisch Gladbach, Germany). MASCQuantifiy software (Miltenyi Biotech, Bergisch Gladbach, Germany) was used to quantify PI negative and positive cells. The experiments were repeated three times independently. Statistical significance between the treated groups and control was determined by one-way ANOVA with post hoc multiple comparison Dunett’s test using GraphPad Prism V6 (GraphPad Software, La Jolla, CA, USA). * p < 0.05 was considered statistically significant.

[4] = tested on: zebrafish liver cells (ZFL); test: Cell cycle analysis with flow cytometry; type: cell-based; settings: 72 h; for effect on cell cycle progression: concentration-dependent, parallel decrease in S-phase fraction
Description: ZFL cells were seeded onto T25 culture plates at a density of 450,000 cells for 24 h. […] The positive control was etoposide (0.17 μM), which is known to arrest cells in the G2/M phase of the cell cycle. After 72 h, cells were trypsinized (0.25% trypsin-EDTA) and washed with 1x PBS before fixation in 4% paraformaldehyde (PFA). For flow cytometric analysis, fixed cells were washed in cold 1x PBS and stained with Hoechst 33258 dye (diluted in 0.1% Triton X-100 1:500) as described by Stampar et al.. Flow cytometric measurements were performed using a MACSQuant Analyzer 10 and the experiment was repeated three times independently. Each time, 20,000 single cells were recorded per experimental point. The data obtained were analyzed using FlowJo V10 software (Becton Dickinson, Franklin Lakes, NJ, USA). Statistical analysis for cell cycle was performed by the two-way ANOVA with Fisher’s LSD test using GraphPad Prism V6 (GraphPad Software, La Jolla, CA, USA). * p < 0.05, ** (p < 0.01), *** (p < 0.001) were considered statistically significant.

[5] = tested on: zebrafish liver cells (ZFL); test: Micronucleus detection by flow cytometry; type: cell-based; settings: 72 h
Description: ZFL cells were seeded onto 24-well culture plates (Nunclon) at a density of 35,000 cells per well for 24 h. […] Etoposide (0.17 μM and 0.68 μM) was used as a positive control. After 72 h, cells were placed on ice for 20 min, and subsequently a 0.05 mg/mL EMA solution was added to each well. The cells were placed on ice for 30 min and exposed to light for photoactivation of the EMA fluorochrome. Afterwards, cells were washed and resuspended in lysis solution (0.584 mg/mL NaCl, 1 mg/mL sodium citrate, and 0.3 μL/mL Triton X-100) containing 0.2 μM SYTOX Green and 0.25 mg/mL RNAse A, and incubated for 1 h in the dark at 37 °C. After incubation, lysis solution (85.6 mg/mL sucrose and 15 mg/mL citric acid) containing 0.2 μM SYTOX Green was added to the wells of the plate and incubated for a further 30 min at room temperature in the dark. Cells were analyzed on the same day using MACSQuant Analyzer 10 flow cytometer. MASCQuantify Software 2.11. was used to analyze each sample, and the percentage of micronuclei was determined after the acquisition of a total of 20,000 gated nuclei events, excluding EMA-positive events. One-way ANOVA with post hoc multiple comparison Dunett’s test using GraphPad Prism V6 (GraphPad Software, Carlsbad, CA, USA) was carried out. * p < 0.05 and *** p < 0.0001 were considered statistically significant.

primary rat hepatocytes = settings: cited from earlier work
[6] = tested on: primary human hepatocytes; settings: cited from earlier work
HepG2 cells [7] = settings: 20 μM; ref Mingard et al. 46; cited from earlier work
[8] = tested on: certain target cancer cells; parameters: method as in ref 56, 57 (DAS), 58, 59 (REG); settings: in vitro; 57 (DAS), 58, 59 (REG); cited from earlier work
[9] = tested on: targeted and non-targeted human chronic myeloid leukemia cancer cells; parameters: method as in doi:10.1182/blood.V124.21.5510.5510; settings: therapeutic concentrations (NIL 48 h); cited from earlier work
mammalian cells = tested on: mammalian cells; parameters: method as in EMEA documents (69); settings: ref EMEA documents (69); cited from earlier work
rats = tested on: rats; parameters: method as in EMEA documents (69); settings: ref EMEA documents (69); cited from earlier work
Huh-7 cells [10] = tested on: Huh-7 cells; parameters: method as in PMID 32397371; settings: 48 h exposure; cited from earlier work
HepG2 cells [11] = tested on: HepG2 cells; parameters: method as in PMID 32397371; settings: 48 h exposure; cited from earlier work
Huh-7 cells [12] = settings: 72 h; cited from earlier work
[13] = tested on: human colon adenocarcinoma HT-29 cell line; settings: 16 uM for 12 h; cited from earlier work
HepG2 cells [14] = tested on: HepG2 cells; parameters: method as in PMID 32913557; settings: 1 µM for 24 h; cited from earlier work
[15] = tested on: Huh7, A549 and MCF-7 cells; settings: cited from earlier work
[16] = tested on: liver of male albino rats; parameters: method as in ref 64 = [64]; 64. Diab A.A.A. El-aziz S.A.A. Hendawy A.A. Hamza R.Z. Salim D.M.M. Protective Effect of Antioxidants Combinations (Vit A, C, E and Selenium) (Antox Drug) against Oxidative Stress and Cellular Toxicit; settings: 10 mg/kg body weight daily for two weeks; cited from earlier work
mice = tested on: mice; parameters: method as in EMEA documents (69); settings: ref EMEA documents (69); cited from earlier work
[17] = tested on: human hepatocellular carcinoma SMMC-7721 cells; settings: approximately 5 μM, 24 h; cited from earlier work
[18] = tested on: human hepatocellular carcinoma SK-HEP-1 cells; settings: approximately 10 μM, 24 h; cited from earlier work
Swiss albino mice = settings: cited from earlier work

Q: What does the source list for `Cc1nc(Nc2ncc(C(=O)Nc3c(C)cccc3Cl)s2)cc(N2CCN(CCO)CC2)n1` [DAS, dasatinib]?
A: IC50 at 24 h [1]: 0.64 µM; IC50 at 48 h [1]: 0.24 µM; IC50 at 72 h [1]: 0.16 µM; viability of the ZFL cells [2]: reduced; FSC/SSC dot plot shift, apoptosis ([3]; all tested DAS concentrations (0.015-0.06 μM), 72 h): induction of apoptosis; exposed cells degraded ([3]; lowest DAS concentration (0.015 μM), 72 h): more than 50%; concentration that induced G0/G1 cell cycle arrest with decrease in number of cells in S phase [4]: 0.03 µM; effect on cell cycle progression [4]: arrest of the cell cycle in the G0/G1 phase; MNi in representative dot plot ([5]; 0.015 μM): increased amount of MNi; MNi in representative dot plot ([5]; 0.03 μM): increased amount of MNi; MNi in representative dot plot ([5]; 0.06 μM): low amount of nuclei and MNi; IC50 (primary rat hepatocytes; 48 h exposure, read-out: 50% growth inhibition): 21.1 µM; cytotoxicity (primary rat hepatocytes): cytotoxic only to primary rat hepatocytes; cytotoxicity [6]: not to primary human hepatocytes; apoptosis (HepG2 cells [7]): induced apoptosis; DNA damage assessed by comet assay [8]: induce DNA damage; centromere positive micronuclei [9]: increased the number of centromere positive micronuclei; structural chromosomal aberrations (mammalian cells): increased the number of structural chromosomal aberrations; in vivo micronucleus assay (rats): negative

Q: Which IC50 at 24 h [1] does the source give for `CNC(=O)c1cc(Oc2ccc(NC(=O)Nc3ccc(Cl)c(C(F)(F)F)c3)cc2)ccn1` [SOR, sorafenib] here?
A: Its IC50 at 24 h is 6.93 µM.

Q: And the IC50 at 48 h [1]?
A: The IC50 at 48 h was 3.36 µM.

Q: And the IC50 at 72 h [1]?
A: The IC50 at 72 h was 2.71 µM.

Q: And the “viability of the ZFL cells” value [2]?
A: The value was “reduced”.

Q: What about the “percentage of PI negative cells” value ([3]; 72 h exposure, low concentrations) of the same compound?
A: The value was “did not significantly decrease”.

Q: And the “concentration that induced G0/G1 cell cycle arrest with decrease in number of cells in S phase” value [4]?
A: Its value is 1 µM.

Q: What about the “effect on cell cycle progression” value [4] of the same compound?
A: Its value is “arrest of the cell cycle in the G0/G1 phase”.

Q: And the MNi frequency ([5]; non-cytotoxic concentrations)?
A: Its MNi frequency is “did not significantly increase”.

Q: And the IC50 (primary rat hepatocytes; 24 h, read-out: IC50)?
A: Its IC50 is 5.46 µM.

Q: What about the IC50 ([6]; 24 h) of the same compound?
A: The IC50 was 10 µM.

Q: And the “concentration with significant change in cell viability” value (Huh-7 cells [10])?
A: Its value is 2 µM.

Q: What about the “concentration with significant change in cell viability” value (HepG2 cells [11]) of the same compound?
A: Its value is 5 µM.

Q: What about the “concentration with cell cycle arrest” value (Huh-7 cells [12]) of the same compound?
A: Its value is 3.7 µM.

Q: What about the “DNA double strand breaks (neutral comet assay)” value [13] of the same compound?
A: Its value is “did not significantly increase DNA double strand breaks”.

Q: And the “DNA strand breaks (alkaline comet assay)” value (HepG2 cells [14])?
A: The value was “did not significantly increase”.

Q: And the “DNA damage in vitro” value [15]?
A: Its value is “induced DNA damage”.

Q: What about the “DNA damage in liver (comet assay in vivo)” value [16] of the same compound?
A: The value was “induced DNA damage”.

Q: And the structural chromosomal aberrations (mammalian cells)?
A: Its structural chromosomal aberrations is “increased the number of structural chromosomal aberrations”.

Q: And the “in vivo micronucleus assay” value (mice)?
A: The value was “negative”.

Q: What about the MNi formation [17] of the same compound?
A: Its MNi formation is “did not increase MNi formation”.

Q: What about the MNi formation [18] of the same compound?
A: The MNi formation was “did not increase MNi formation”.

Q: What about the “increase in MNi formation” value (Swiss albino mice) of the same compound?
A: The value was “approximately 10 fold”.
